From patent publication US8455688B2, “HDAC inhibitors” (Lixte Biotechnology, Inc., priority 2007, dated 2013)

Test system: cell line U-87
Test: Activity against the cell line U-87
Format: cell-based, human
Conditions: potency on an equimolar basis

SMILES | activity against the cell line U-87
O=C(CCCCCCNC(=O)c1ccccc1S)Nc1ccccc1 [Compound 212, 2-Mercapto-N-(6-phenylcarbamoyl-hexyl)benzamide] | most potent on an equimolar basis
O=C(CCCCCCCNC(=O)c1ccccc1S)Nc1ccccc1 [Compound 213] | most potent on an equimolar basis
